Residues, ends and D or L forms follow the SMILES beside them.
Key:
S. aureus (NCTC 10788) = assay: Antimicrobial susceptibility assay (MIC/MBC); format: cell-based, Staphylococcus aureus; conditions: for MIC: MHB, 37 °C, 20 h
Description: (§1) Six bacteria were tested in this experiment to detect the antimicrobial effects of crabrolin and its derivatives, including S. aureus (NCTC 10788), MRSA (NCTC 12493), E. coli (ATCC 8739), K. pneumoniae (ATCC 43816), E. faecium (NTCC-12697), and P. aeruginosa (ATCC 9027). The tested bacteria were cultured in Mueller Hinton broth medium (MHB) with norfloxacin (20 mg/L) as a positive control. All bacteria were incubated at 37 °C overnight and diluted to 5 × 10^5 CFU/mL before treating with the peptides. Stock solutions of 51,200 µM peptides were prepared in phosphate-buffered saline (PBS) and further diluted by a factor of two to 100 µM. Next, 1 µL of each peptide solution was mixed with 99 µL of bacterial subculture in a 96-well plate, and the plate was incubated at 37 °C for 20 h. After culturing, the absorbance of each well in the 96-well plate was analyzed at 550 nm using a Synergy HT plate reader (BioliseBioTek, Winooski, VT, USA). […] Starting with the MIC value, 10 µL of the solution from each well was dripped onto Mueller Hinton agar (MHA) plates. The plates were cultured at 37 °C for 20 h. After culturing, the lowest concentration with no colony growth was regarded as the MBC.

E. coli (ATCC 8739) = assay: Antimicrobial susceptibility assay (MIC/MBC); format: cell-based, Escherichia coli; conditions: for MIC: MHB, 37 °C, 20 h
Description: as §1

MRSA (NCTC 12493) = assay: Antimicrobial susceptibility assay (MIC/MBC); format: cell-based, methicillin-resistant Staphylococcus aureus; conditions: for MIC: MHB, 37 °C, 20 h
Description: as §1

[1] = tested on: K. pneumoniae (ATCC 43816); assay: Antimicrobial susceptibility assay (MIC/MBC); format: cell-based, Klebsiella pneumoniae; conditions: for MIC: MHB, 37 °C, 20 h
Description: as §1

E. faecium (NTCC 12697) = assay: Antimicrobial susceptibility assay (MIC/MBC); format: cell-based, Enterococcus faecium; conditions: for MIC: MHB, 37 °C, 20 h
Description: as §1

[2] = tested on: P. aeruginosa (ATCC 9027); assay: Antimicrobial susceptibility assay (MIC/MBC); format: cell-based, Pseudomonas aeruginosa; conditions: for MIC: MHB, 37 °C, 20 h
Description: as §1

[3] = tested on: MRSA (NCTC 12493) biofilm; format: cell-based, methicillin-resistant Staphylococcus aureus; conditions: for MBIC: biofilm inhibitory rate more than 90%; for MBEC: eradication rate greater than 99.9%
Description: (§2) To measure the antibiofilm activity of crabrolin and its derivatives, four drug-resistant biofilm-forming strains, MRSA (NCTC 12493), K. pneumoniae (ATCC 43816), E. faecium (NTCC-12697), and P. aeruginosa (ATCC 9027), were used in this assay. Tryptic soy broth (TSB) (for the Gram-positive bacteria) and Luria–Bertani broth (LB) (for the Gram-negative bacteria) were used to culture the bacteria.
(§3) The mass of the biofilm in this assay was detected by the crystal violet staining method. First, 100 μL of 5 × 10^5 CFU/mL bacteria was incubated with 1 μL of different peptide solutions (ranging from 51200 μM to 100 μM) for 24 h at 37 °C with 200 rpm shaking. After the biofilm formation, 100 μL of PBS was used to rinse the biofilm twice. Next, 100 µL of methanol was added to fix the biofilm, and the biofilm was then dried. Thereafter, 100 μL of 0.1% crystal violet was added and left to stain for 15 min, and then the excess crystal violet was further rinsed by PBS. After the plate had air-dried, 30% glacial acetic acid was added to each well of the plate, and the plate was shaken for 15 min before the optical density (OD) value was measured at 595 nm using a Synergy HT plate reader. The MBIC value refers to the minimum concentration at which the biofilm inhibitory rate was more than 90%.
(§4) Different from measuring the MBIC value, to determine the MBEC value, 100 μL of the bacteria was first added to 96-well plates. After the biofilm was formed, the biofilm was rinsed with PBS twice to remove the planktonic cells, and then different concentrations of the drugs were added to the biofilm (the same as the MBIC assay). The mixture was incubated at 37 °C with shaking at 200 rpm. After 24 h of incubation, the mass of the biofilm was measured in the same way as the MBIC value, and the minimum concentration at which the eradication rate was greater than 99.9% was considered to be the MBEC value.

[4] = tested on: K. pneumoniae (ATCC 43816) biofilm; format: cell-based, Klebsiella pneumoniae; conditions: for MBIC: biofilm inhibitory rate more than 90%; for MBEC: eradication rate greater than 99.9%
Description: as §2, §3, §4

[5] = tested on: E. faecium (NTCC12697) biofilm; format: cell-based, Enterococcus faecium; conditions: for MBIC: biofilm inhibitory rate more than 90%; for MBEC: eradication rate greater than 99.9%
Description: as §2, §3, §4

[6] = tested on: P. aeruginosa (ATCC 9027) biofilm; format: cell-based, Pseudomonas aeruginosa; conditions: for MBIC: biofilm inhibitory rate more than 90%; for MBEC: eradication rate greater than 99.9%
Description: as §2, §3, §4

[7] = tested on: human breast cancer cell line MCF-7; assay: Anti-proliferative assay (MTT); format: cell-based; conditions: MCF-7, MTT, 24 h
Description: (§5) The human non-small-cell lung cancer line, H838, the human prostate carcinoma cell line, PC-3, the human glioblastoma astrocytoma, U251MG, the human breast cancer cell line, MCF-7, the human colorectal carcinoma cell line, HCT116, and the human keratinocyte cell line, HaCaT, were used to detect the anti-proliferative effects of the crabrolin and its derivatives in vitro. A total of 8000 cells were seeded in each well of a 96-well plate. After the cells had adhered to the wall, the cells were starved for 4 h. After the starvation, the cells were incubated with different concentrations of the drugs, ranging from 100 µM to 1 nM, for 24 h, with 0.1% Triton X-100 used as a positive control. Next, 10 µL of MTT (3-(4,5-dimethylthiazol-2-yl)-2,5-diphenyltetrazolium bromide) solution (5 mg/mL) was added to each well of the 96-well plate. After 2 h of incubation, 100 μL of DMSO-superseded medium was added to each well to dissolve the formazan crystals. Finally, the absorbance was detected using a Synergy HT plate reader at 570 nm.

[8] = tested on: human colorectal carcinoma cell line HCT-116; assay: Anti-proliferative assay (MTT); format: cell-based; conditions: HCT-116, MTT, 24 h
Description: as §5

[9] = tested on: human glioblastoma astrocytoma U251MG; assay: Anti-proliferative assay (MTT); format: cell-based; conditions: 24 h
Description: as §5

[10] = tested on: human keratinocyte cell line HaCaT; assay: Anti-proliferative assay (MTT); format: cell-based; conditions: HaCaT (normal keratinocytes), 24 h
Description: as §5

[11] = tested on: human non-small-cell lung cancer line H838; assay: Anti-proliferative assay (MTT); format: cell-based; conditions: 24 h
Description: as §5

[12] = tested on: human prostate carcinoma cell line PC-3; assay: Anti-proliferative assay (MTT); format: cell-based; conditions: PC3, MTT, 24 h
Description: as §5

Hemolysis assay = format: cell-based, horse; conditions: horse, erythrocytes (2% suspension); at the peptide's maximum MIC; relative to Triton X-100; read-out: Hemolysis under the Maximum MIC
Description: (§6) According to the procedures described in detail in a previous study, the debris and impurities of the erythrocytes were washed with PBS in advance to yield 2% of the erythrocyte suspension, and the drug concentration was diluted from 1024 µM to 2 µM with PBS [53]. The same amounts of the drug and the erythrocyte suspension were mixed and cultured at 37 °C for 2 h; 0.1% Triton X-100 (Sigma-Aldrich, St. Louis, MO, USA) was prepared as a positive control, and PBS was prepared as a negative control. After the incubation, the supernatant was transferred to a 96-well plate and then detected using a Synergy HT plate reader at 570 nm.

horse erythrocytes = assay: Hemolysis assay; format: cell-based
Description: as §6

SMILES | MBC (S. aureus (NCTC 10788)) | MIC (S. aureus (NCTC 10788)) | MBC (E. coli (ATCC 8739)) | MIC (E. coli (ATCC 8739)) | MBC (MRSA (NCTC 12493)) | MIC (MRSA (NCTC 12493)) | MBC [1] | MIC [1] | MBC (E. faecium (NTCC 12697)) | MIC (E. faecium (NTCC 12697)) | MBC [2] | MIC [2] | MBIC [3] | MBEC [3] | MBIC [4] | MBEC [4] | MBIC [5] | MBEC [5] | MBIC [6] | MBEC [6] | other results
CC[C@H](C)[C@H](NC(=O)[C@H](CCCNC(=N)N)NC(=O)[C@H](CCCNC(=N)N)NC(=O)[C@H](CC(C)C)NC(=O)[C@@H](N)CCCNC(=N)N)C(=O)N[C@@H](CC(C)C)C(=O)N[C@@H](CCCNC(=N)N)C(=O)N[C@@H](CCCCN)C(=O)N[C@H](C(=O)N[C@H](C(=O)N[C@@H](CCCNC(=N)N)C(=O)N[C@@H](CCCNC(=N)N)C(=O)N[C@@H](CC(C)C)C(N)=O)C(C)C)[C@@H](C)CC [Crabrolin-PR, RLRRILRKIVRRL-NH2] (H-RLRRILRKIVRRL-NH2) | 4 µM | 2 µM | 8 µM | 2 µM | 8 µM | 4 µM | 16 µM | 8 µM | 16 µM | 8 µM | 16 µM | 4 µM | 8 µM | 512 µM | 8 µM | > 512 µM | 32 µM | > 512 µM | 8 µM | > 512 µM | IC50 [7]: 12.3 µM; IC50 [8]: 16.3 µM; IC50 [9]: 17.7 µM; IC50 [10]: 29.5 µM; IC50 [11]: 32.3 µM; IC50 [12]: 22.4 µM; hemolysis at 2 h (Hemolysis assay): 3.09%; HC10 (10% hemolytic concentration) (horse erythrocytes; erythrocytes, 37 °C, 2 h): 5019 µM; Hemolytic activity at the measured maximum concentration (horse erythrocytes; maximum concentration (range 1 to 512 μM)): less than 1%
CC[C@H](C)[C@H](NC(=O)[C@H](CCCNC(=N)N)NC(=O)[C@@H]1CCCN1C(=O)[C@H](CC(C)C)NC(=O)[C@@H](N)CCCNC(=N)N)C(=O)N[C@@H](CC(C)C)C(=O)N[C@@H](CCCNC(=N)N)C(=O)N[C@@H](CCCCN)C(=O)N[C@H](C(=O)N[C@H](C(=O)N[C@@H](CCCNC(=N)N)C(=O)N[C@@H](C)C(=O)N[C@@H](CC(C)C)C(N)=O)C(C)C)[C@@H](C)CC [Crabrolin-FR, RLPRILRKIVRAL-NH2] (H-RLPRILRKIVRAL-NH2) | 2 µM | 2 µM | 4 µM | 2 µM | 4 µM | 4 µM | 16 µM | 8 µM | 16 µM | 8 µM | 16 µM | 4 µM | 8 µM | 256 µM | 8 µM | 512 µM | 32 µM | > 512 µM | 8 µM | > 512 µM | IC50 [7]: 33.9 µM; IC50 [8]: 30.3 µM; IC50 [9]: 62.2 µM; IC50 [10]: 30.4 µM; IC50 [11]: 31.5 µM; IC50 [12]: 15.9 µM; hemolysis at 2 h (Hemolysis assay): 5.67%; HC10 (10% hemolytic concentration) (horse erythrocytes; erythrocytes, 37 °C, 2 h): 18.082 µM
CC[C@H](C)[C@H](NC(=O)[C@H](CCCCN)NC(=O)[C@@H]1CCCN1C(=O)[C@H](CC(C)C)NC(=O)[C@@H](N)Cc1ccccc1)C(=O)N[C@@H](CC(C)C)C(=O)N[C@@H](CCCNC(=N)N)C(=O)N[C@@H](CCCCN)C(=O)N[C@H](C(=O)N[C@H](C(=O)N[C@H](C(=O)N[C@@H](C)C(=O)N[C@@H](CC(C)C)C(N)=O)[C@@H](C)O)C(C)C)[C@@H](C)CC [Crabrolin-4K, FLPKILRKIVTAL-NH2] (H-FLPKILRKIVTAL-NH2) | 4 µM | 2 µM | 8 µM | 4 µM | 16 µM | 8 µM | 32 µM | 16 µM | 64 µM | 32 µM | 32 µM | 16 µM | 16 µM | 128 µM | 16 µM | 256 µM | 16 µM | > 512 µM | 512/512 µM | 512/512 µM | IC50 [7]: 23.2 µM; IC50 [8]: 42.9 µM; IC50 [9]: 23.5 µM; IC50 [10]: 32.6 µM; IC50 [11]: 22.6 µM; IC50 [12]: 20.6 µM; hemolysis at 2 h (Hemolysis assay): 10.4%; HC10 (10% hemolytic concentration) (horse erythrocytes; erythrocytes, 37 °C, 2 h): 68.628 µM; HC50 (50% hemolytic concentration) (horse erythrocytes; erythrocytes, 37 °C, 2 h): 217.816 µM

— PMC10572522, “A Designed Analog of an Antimicrobial Peptide, Crabrolin, Exhibits Enhanced Anti-Proliferative and In Vivo Antimicrobial Activity” (International Journal of Molecular Sciences, 2023)
